Patent publication US7763584B2, “Hepatitis C virus inhibitors” (priority 2006, dated 2010)

Tested on: HCV replicon in HUH-7 cells
Assay: HCV replicon FRET assay (EC50 confirmed in replicon luciferase reporter assay)
Assay type: cell-based
Conditions: Hepatitis C virus, Huh-7, 96 h
From the text: An HCV replicon whole cell system was established as described by Lohmann V, Korner F, Koch J, Herian U, Theilmann L, Bartenschlager R., Science 285(5424): 110-3 (1999). This system enabled us to evaluate the effects of our HCV Protease compounds on HCV RNA replication. Briefly, using the HCV strain 1b sequence described in the Lohmann paper (Assession number: AJ238799), an HCV cDNA was synthesized by Operon Technologies, Inc. (Alameda, Calif.), and the full-length replicon was then assembled in plasmid pGem9zf(+) (Promega, Madison, Wis.) using standard molecular biology techniques. […]
The HCV replicon FRET assay was developed to monitor the inhibitory effects of compounds described in the disclosure on HCV viral replication. […] After 4 days, cells were first assessed for cytotoxicity using alamar Blue (Trek Diagnotstic Systems) for a CC50 reading. The toxicity of compound (CC50) was determined by adding 1/10th volume of alamar Blue to the media incubating the cells. After 4 h, the fluorescence signal from each well was read, with an excitation wavelength at 530 nm and an emission wavelength of 580 nm, using the Cytofluor Series 4000 (Perspective Biosystems). […]

CO[C@@]1(c2ccc(-c3ccccc3)cc2)C[C@H]2C(=O)N[C@]3(C(=O)NS(=O)(=O)C4CC4)C[C@H]3/C=C\CCCCC[C@H](NC(=O)OC(C)(C)C)C(=O)N2C1 [Compound 1, tert-butyl (2R,6S,13aS,14aR,16aS,Z)-2-(biphenyl-4-yl)-14a-(cyclopropylsulfonylcarbamoyl)-2-methoxy-5,16-dioxo-1,2,3,5,6,7,10,11,13a,14,14a,15,16,16a-hexadecahydrocyclopropa[e]pyrrolo[1,2-a][1,4]diazacyclopentadecin-6-ylcarbamate]
EC50: 5 nM
